Results taken from US20240262807A1, “COMPOUND USED AS BCR-ABL INHIBITOR” (CHIA TAI TIANQING PHARMACEUTICAL GROUP CO., LTD., priority 2021, published 2024).

Columns and labels:
[1] = Evaluation of pharmacokinetics in mice; assay type: in vivo; conditions: mouse, plasma, po, ICR mice; for bioavailability: ig 10 mg/kg, (intragastric AUC×intravenous dosage)/(intravenous AUC×intragastric dosage)×100%, read-out: Fabs(%) absolute bioavailability; for Cmax / Tmax / half-life / AUC(0-t) / MRT last: ig, 10 mg/kg; for AUC(0-t): read-out: AUC(0-24); for MRT last: read-out: MRT(0-24)
Experimental: ICR mice (purchased from Shanghai Sippe-Bk Lab Animal Co., Ltd.) of 18-22 g were randomized into groups of 9 after 3-5 days of acclimatization and administered with the compounds at a dose of 10 mg/kg by intragastric administration. The animals to be tested (ICR mice) were fasted overnight before administration and food was provided 4 h after administration, and water was freely drunk before and after the experiment and during the experiment. After intragastric administration, about 0.1 mL of blood was collected from the orbit at 0.25 (15 min), 0.5 (30 min), 1, 2, 3, 4, 6, 8, 10, and 24 h (Each mouse was subjected to blood collection at 3-4 time points, with three mice per time point). The blood samples were mixed with EDTA-K2 anticoagulant, transferred to a centrifuge within 30 min, and then centrifuged at 4000 rpm for 10 min at 4° C. to separate the plasma. All the plasma samples were collected and immediately stored at −20° C. for testing.
300 μL of acetonitrile solution containing an internal standard (20 ng/ml diazepam) was added to 30 μL of the plasma sample and standard curve sample. The mixture was shaken and mixed well for 5 min, and centrifuged at 13.000 rpm for 10 min. 70 μL of supernatant was taken and diluted with 70 μL of ultrapure water. After being mixed well, 1 μL of the resulting sample was subjected to LC/MS/MS, and a chromatogram was recorded.
Oral exposure of the compounds was evaluated by in vivo pharmacokinetic experiments in mice. The relevant pharmacokinetic parameters were fitted by using DAS3.2.5 software, where absolute bioavailability Fabs(%)=(intragastric AUC×intravenous dosage)/(intravenous AUC×intragastric dosage)×100%.

[2] = system: K562 cells; test: Inhibitory effect of compounds on proliferation of K562 cells (CCK-8); assay type: cell-based; conditions: Homo sapiens, 72 h with compound, CCK-8, 5% serum
Experimental: K562 cells in logarithmic growth phase and good cell condition were added to a centrifuge tube and centrifuged at 1000 rpm for 5 min in a low speed centrifuge. […] The cells were seeded on a 96-well plate at 100 µL/well using a multi-channel pipette and cultured in a cell incubator at 37° ° C. 5% CO2 and saturated humidity. […] Inhibition rate (%)=(mean value of negative control group−mean value of experimental group)/(mean value of negative control group−mean value of blank group)×100%. A dose-response curve was fitted by four-parameter analysis, with the logarithm of compound concentration serving as abscissa and inhibition rate serving as ordinate, such that IC50 was calculated.

[3] = molecular target: T1, Ba/F3-BCR-ABL1-T315I-C3 cells (Homo sapiens, UniProt P00519, T315I, cells depend on it); test: Inhibitory effect of compounds on proliferation of BCR-ABL T315I-transfected Ba/F3 cells (CCK-8); assay type: cell-based; conditions: 72 h with compound, CCK-8, 5% serum, read-out: IC50 (nM) Ba/F3-BCR-ABL1 T315I
T1 construct: fused on or other part: P11274 (Breakpoint cluster region protein)
Experimental: Ba/F3-BCR-ABL1-T315I-C3 cells in logarithmic growth phase and good cell condition were added to a centrifuge tube and centrifuged at 1000 rpm for 5 min in a low speed centrifuge. The supernatant was discarded, and 5 mL of complete medium (RPMI 1640 basic medium+10% FBS) was added using a pipette for cell resuspension. The cells were counted using a cell counter, diluted with complete medium to a cell density of 6×10^4 cells/mL, and an equivalent amount of RPMI 1640 basic medium was added to adjust the serum concentration to 5% and the cell density to 3×10^4 cells/mL for plate seeding. The cells were seeded on a 96-well plate at 100 μL/well using a multi-channel pipette and cultured in a cell incubator at 37° C. 5% CO2 and saturated humidity. After 24 h incubation, compounds were loaded using a nanoliter pipettor, 8 concentrations (1000 nM, 250 nM, 63 nM, 16 nM, 3.9 nM, 0.98 nM, 0.24 nM, 0.061 nM) were set for each compound, and 2 replicate wells were set for each concentration; cells with no compounds added were taken as a negative control, and a plating medium with no cells added was taken as a blank control. After 72 h. […] Inhibition rate (%)=(mean value of negative control group−mean value of experimental group)/(mean value of negative control group−mean value of blank group)×100%. A dose-response curve was fitted by four-parameter analysis, with the logarithm of compound concentration serving as abscissa and inhibition rate serving as ordinate, such that ICso was calculated.

Structure (SMILES)	IC50 [2]	GI50 [3]	also measured
Cn1ccc(-c2cc(C(=O)Nc3ccc(OC(F)(F)Cl)cc3)cnc2N2CCOCC2)cc1=O [Compound 7]	11 nM	16 nM	bioavailability [1]: 74.1%; Cmax [1]: 772 ng/mL; Tmax [1]: 3 h; half-life [1]: 1.05 h; AUC(0-t) [1]: 2850 ng·h/mL; MRT last [1]: 3.03 h
Cn1cnc(-c2cc(C(=O)Nc3ccc(OC(F)(F)Cl)cc3)cnc2N2CCCC2)cc1=O [Compound 45]	4.2 nM	8.1 nM	–
Cn1cnc(-c2cc(C(=O)Nc3ccc(OC(F)(F)Cl)cc3)cnc2N2CC[C@@H](O)C2)cc1=O [Compound 46]	26 nM	26 nM	–
Cn1ncc(-c2cc(C(=O)Nc3ccc(OC(F)(F)Cl)cc3)cnc2N2CCCC2)cc1=O [Compound 47]	2.6 nM	1.8 nM	–
Cn1cnc(-c2cc(C(=O)Nc3ccc(OC(F)(F)Cl)cc3)cnc2N2CC[C@@H](F)C2)cc1=O [Compound 53]	3 nM	2.7 nM	–
Cn1cnc(-c2cc(C(=O)Nc3ccc(OC(F)(F)Cl)cc3)cnc2N2CCOCC2)cc1=O [Compound 54]	8.5 nM	6.4 nM	–
C[C@@H]1COCCN1c1ncc(C(=O)Nc2ccc(OC(F)(F)Cl)cc2)cc1-c1cc(=O)n(C)cn1 [Compound 56]	18 nM	12 nM	–
Cn1cncc(-c2cc(C(=O)Nc3ccc(OC(F)(F)Cl)cc3)cnc2N2CCOCC2)c1=O [Compound 60]	6.3 nM	4 nM	–
CN(C)c1ncc(C(=O)Nc2ccc(OC(F)(F)Cl)cc2)cc1-c1cc(=O)n(C)cn1 [Compound 61]	5.6 nM	3 nM	bioavailability [1]: 95.1%; Cmax [1]: 3200 ng/mL; Tmax [1]: 2 h; half-life [1]: 10.4 h; AUC(0-t) [1]: 24100 ng·h/mL; MRT last [1]: 4.83 h
CO[C@@H]1CCN(c2ncc(C(=O)Nc3ccc(OC(F)(F)Cl)cc3)cc2-c2cc(=O)n(C)cn2)C1 [Compound 63]	5.2 nM	6 nM	–
Cn1cnc(-c2cc(C(=O)Nc3ccc(OC(F)(F)Cl)cc3)cnc2N2CC(F)(F)C2)cc1=O [Compound 72]	9.2 nM	6.3 nM	–
C[C@@H]1CCN1c1ncc(C(=O)Nc2ccc(OC(F)(F)Cl)cc2)cc1-c1cc(=O)n(C)cn1 [Compound 76]	2.2 nM	2.2 nM	–
Cn1ncc(-c2cc(C(=O)Nc3ccc(OC(F)(F)Cl)cc3)cnc2N2CC3CC(C2)O3)cc1=O [Compound 83]	3.2 nM	4.1 nM	–
Cn1cccc(-c2cc(C(=O)Nc3ccc(OC(F)(F)Cl)cc3)cnc2N2CCOCC2)c1=O [Compound 86]	24 nM	14 nM	–
Cn1ncc(-c2cc(C(=O)Nc3ccc(OC(F)(F)Cl)cc3)cnc2N2CC3CCC(C2)O3)cc1=O [Compound 91]	6.6 nM	4.1 nM	–
O=C(Nc1ccc(OC(F)(F)Cl)cc1)c1cnc(N2CC(O)C2)c(-c2cc3c([nH]2)C(=O)NCC3)c1 [Compound 98]	4.7 nM	3.8 nM	–
CN(C)c1ncc(C(=O)Nc2ccc(OC(F)(F)Cl)cc2)cc1-c1cc2c([nH]1)C(=O)NC2 [Compound 109]	0.95 nM	0.27 nM	–
O=C(Nc1ccc(OC(F)(F)Cl)cc1)c1cnc(N2CC[C@@H](O)C2)c(-c2cc3c([nH]2)C(=O)N(C2CC2)C3)c1 [Compound 113]	0.62 nM	0.18 nM	–
O=C(Nc1ccc(OC(F)(F)Cl)cc1)c1cnc(N2CC(O)C2)c(-c2cc3c([nH]2)C(=O)N(C2CC2)C3)c1 [Compound 114]	0.56 nM	0.21 nM	–
CN1CCc2cc(-c3cc(C(=O)Nc4ccc(OC(F)(F)Cl)cc4)cnc3N3CCOCC3)[nH]c2C1=O [Compound 115]	5.5 nM	3 nM	–
O=C(Nc1ccc(OC(F)(F)Cl)cc1)c1ccc(N2CC(O)C2)c(-c2cc3c([nH]2)C(=O)NC3)c1 [Compound 117]	1 nM	0.15 nM	–

Continued, in another order:

IC50 [2]	GI50 [3]	Structure (SMILES)	also measured
3.1 nM	9.6 nM	Cn1ccc(-c2cc(C(=O)Nc3ccc(OC(F)(F)Cl)cc3)cnc2N2CCCC2)cc1=O [Compound 15]	bioavailability [1]: 106%; Cmax [1]: 2330 ng/mL; Tmax [1]: 2 h; half-life [1]: 2.12 h; AUC(0-t) [1]: 12300 ng·h/mL; MRT last [1]: 3.64 h
2.1 nM	4.7 nM	Cn1ccc(-c2cc(C(=O)Nc3ccc(OC(F)(F)Cl)cc3)cnc2N2CC[C@@H](F)C2)cc1=O [Compound 16]	bioavailability [1]: 93.2%; Cmax [1]: 1880 ng/mL; Tmax [1]: 3 h; half-life [1]: 1.46 h; AUC(0-t) [1]: 9690 ng·h/mL; MRT last [1]: 3.33 h
9.1 nM	8.1 nM	Cn1cnc(-c2cc(C(=O)Nc3ccc(OC(F)(F)Cl)cc3)cnc2N2CCC(F)(F)CC2)cc1=O [Compound 64]	–
12 nM	6.1 nM	Cn1cnc(-c2cc(C(=O)Nc3ccc(OC(F)(F)Cl)cc3)cnc2N2CCSCC2)cc1=O [Compound 67]	–
0.71 nM	0.88 nM	CN1CCc2cc(-c3cc(C(=O)Nc4ccc(OC(F)(F)Cl)cc4)cnc3N3CC[C@@H](O)C3)[nH]c2C1=O [Compound 94]	–
4.7 nM	0.59 nM	O=C(Nc1ccc(OC(F)(F)Cl)cc1)c1cnc(N2CCOCC2)c(-c2cc3c([nH]2)C(=O)NC3)c1 [Compound 96]	–
5.7 nM	2.3 nM	O=C(Nc1ccc(OC(F)(F)Cl)cc1)c1cnc(N2CCOCC2)c(-c2cc3c([nH]2)C(=O)NCC3)c1 [Compound 97]	–
3.2 nM	1.4 nM	O=C(Nc1ccc(OC(F)(F)Cl)cc1)c1cnc(N2CC[C@@H](O)C2)c(-c2cc3c([nH]2)C(=O)NCC3)c1 [Compound 99]	–
3.1 nM	0.44 nM	CNc1ncc(C(=O)Nc2ccc(OC(F)(F)Cl)cc2)cc1-c1cc2c([nH]1)C(=O)NC2 [Compound 110]	–
0.5 nM	0.16 nM	CN1Cc2cc(-c3cc(C(=O)Nc4ccc(OC(F)(F)Cl)cc4)cnc3N3CC[C@@H](O)C3)[nH]c2C1=O [Compound 111]	–
0.54 nM	0.29 nM	CN1Cc2cc(-c3cc(C(=O)Nc4ccc(OC(F)(F)Cl)cc4)cnc3N3CC(O)C3)[nH]c2C1=O [Compound 112]	–
0.82 nM	0.12 nM	O=C(Nc1ccc(OC(F)(F)Cl)cc1)c1ccc(N2CC[C@@H](O)C2)c(-c2cc3c([nH]2)C(=O)NC3)c1 [Compound 116]	–
0.21 nM	0.084 nM	O=C(Nc1ccc(OC(F)(F)Cl)cc1)c1ccc(N2CC(O)C2)c(-c2cc3c([nH]2)C(=O)N(C2CC2)C3)c1 [Compound 120]	–
